Numbers after ± are expanded uncertainties.
Test: molar heat capacity at constant pressure; xn = mol fraction of the nth substance listed
Details: 101 kPa, Liquid

BrCCCCCBr [1,5-dibromopentane] + CCCCCCC
molar heat capacity at constant pressure [J/K/mol]
Details | x1 = 0.1006 | x1 = 0.1994 | x1 = 0.3003 | x1 = 0.4008 | x1 = 0.5004 | x1 = 0.5999 | x1 = 0.6995 | x1 = 0.8002 | x1 = 0.899 | x1 = 1
293.15 K | 221.62 ± 1.7 | 221.15 ± 1.7 | 221 ± 1.7 | 220.91 ± 1.7 | 220.8 ± 1.7 | 220.5 ± 1.7 | 220.19 ± 1.7 | 219.87 ± 1.7 | 219.89 ± 1.7 | 219.76 ± 1.7
294.15 K | 221.93 ± 1.7 | 221.54 ± 1.7 | 221.39 ± 1.7 | 221.29 ± 1.7 | 221.14 ± 1.7 | 220.66 ± 1.7 | 220.44 ± 1.7 | 220.16 ± 1.7 | 220.02 ± 1.7 | 219.98 ± 1.7
295.15 K | 222.35 ± 1.7 | 221.76 ± 1.7 | 221.59 ± 1.7 | 221.6 ± 1.7 | 221.41 ± 1.7 | 220.91 ± 1.7 | 220.59 ± 1.7 | 220.44 ± 1.7 | 220.3 ± 1.7 | 220.19 ± 1.7
296.15 K | 222.62 ± 1.7 | 222.09 ± 1.7 | 221.89 ± 1.7 | 221.77 ± 1.7 | 221.59 ± 1.7 | 221.3 ± 1.7 | 220.81 ± 1.7 | 220.57 ± 1.7 | 220.61 ± 1.7 | 220.41 ± 1.7
297.15 K | 223.06 ± 1.7 | 222.53 ± 1.7 | 222.34 ± 1.7 | 222.15 ± 1.7 | 221.87 ± 1.7 | 221.5 ± 1.7 | 221.19 ± 1.7 | 220.89 ± 1.7 | 220.76 ± 1.7 | 220.66 ± 1.7
298.15 K | 223.39 ± 1.7 | 222.84 ± 1.7 | 222.66 ± 1.7 | 222.48 ± 1.7 | 222.23 ± 1.7 | 221.68 ± 1.7 | 221.42 ± 1.7 | 221.11 ± 1.7 | 221.09 ± 1.7 | 220.84 ± 1.7
299.15 K | 223.7 ± 1.7 | 223.2 ± 1.7 | 222.87 ± 1.7 | 222.74 ± 1.7 | 222.55 ± 1.7 | 221.91 ± 1.7 | 221.69 ± 1.7 | 221.39 ± 1.7 | 221.32 ± 1.7 | 221.1 ± 1.7
300.15 K | 224.16 ± 1.7 | 223.42 ± 1.7 | 223.3 ± 1.7 | 222.91 ± 1.7 | 222.69 ± 1.7 | 222.3 ± 1.7 | 221.83 ± 1.7 | 221.48 ± 1.7 | 221.55 ± 1.7 | 221.28 ± 1.7
301.15 K | 224.39 ± 1.7 | 223.89 ± 1.7 | 223.58 ± 1.7 | 223.33 ± 1.7 | 223.05 ± 1.7 | 222.57 ± 1.7 | 222.17 ± 1.7 | 221.85 ± 1.7 | 221.77 ± 1.7 | 221.49 ± 1.7
302.15 K | 224.88 ± 1.7 | 224.24 ± 1.7 | 223.78 ± 1.7 | 223.52 ± 1.7 | 223.39 ± 1.7 | 222.87 ± 1.7 | 222.33 ± 1.7 | 222.09 ± 1.7 | 221.93 ± 1.7 | 221.73 ± 1.7
303.15 K | 225.21 ± 1.7 | 224.57 ± 1.7 | 224.21 ± 1.7 | 223.81 ± 1.7 | 223.49 ± 1.7 | 223.01 ± 1.7 | 222.58 ± 1.7 | 222.36 ± 1.7 | 222.22 ± 1.7 | 221.95 ± 1.7
304.15 K | 225.49 ± 1.8 | 224.9 ± 1.7 | 224.44 ± 1.7 | 224.26 ± 1.7 | 223.94 ± 1.7 | 223.37 ± 1.7 | 222.93 ± 1.7 | 222.44 ± 1.7 | 222.36 ± 1.7 | 222.17 ± 1.7
305.15 K | 225.96 ± 1.8 | 225.3 ± 1.8 | 224.89 ± 1.7 | 224.59 ± 1.7 | 224.11 ± 1.7 | 223.63 ± 1.7 | 223.17 ± 1.7 | 222.81 ± 1.7 | 222.72 ± 1.7 | 222.41 ± 1.7
306.15 K | 226.32 ± 1.8 | 225.5 ± 1.8 | 225.09 ± 1.7 | 224.8 ± 1.7 | 224.39 ± 1.7 | 223.91 ± 1.7 | 223.45 ± 1.7 | 223.05 ± 1.7 | 222.99 ± 1.7 | 222.63 ± 1.7
307.15 K | 226.59 ± 1.8 | 225.83 ± 1.8 | 225.41 ± 1.8 | 225.15 ± 1.7 | 224.77 ± 1.7 | 224.05 ± 1.7 | 223.72 ± 1.7 | 223.33 ± 1.7 | 223.23 ± 1.7 | 222.85 ± 1.7
308.15 K | 227.03 ± 1.8 | 226.31 ± 1.8 | 225.84 ± 1.8 | 225.38 ± 1.8 | 225.09 ± 1.7 | 224.36 ± 1.7 | 223.89 ± 1.7 | 223.55 ± 1.7 | 223.34 ± 1.7 | 223.09 ± 1.7
309.15 K | 227.44 ± 1.8 | 226.66 ± 1.8 | 226.09 ± 1.8 | 225.8 ± 1.8 | 225.27 ± 1.7 | 224.76 ± 1.7 | 224.26 ± 1.7 | 223.77 ± 1.7 | 223.6 ± 1.7 | 223.31 ± 1.7
310.15 K | 227.81 ± 1.8 | 226.87 ± 1.8 | 226.5 ± 1.8 | 226.12 ± 1.8 | 225.7 ± 1.8 | 224.95 ± 1.7 | 224.52 ± 1.7 | 224.04 ± 1.7 | 223.81 ± 1.7 | 223.56 ± 1.7
311.15 K | 228.09 ± 1.8 | 227.25 ± 1.8 | 226.85 ± 1.8 | 226.31 ± 1.8 | 225.87 ± 1.8 | 225.3 ± 1.8 | 224.66 ± 1.7 | 224.19 ± 1.7 | 224.19 ± 1.7 | 223.78 ± 1.7
312.15 K | 228.59 ± 1.8 | 227.7 ± 1.8 | 227.09 ± 1.8 | 226.6 ± 1.8 | 226.24 ± 1.8 | 225.58 ± 1.8 | 225.06 ± 1.7 | 224.56 ± 1.7 | 224.44 ± 1.7 | 224.03 ± 1.7
313.15 K | 228.91 ± 1.8 | 228.06 ± 1.8 | 227.49 ± 1.8 | 227.05 ± 1.8 | 226.53 ± 1.8 | 225.84 ± 1.8 | 225.31 ± 1.8 | 224.81 ± 1.7 | 224.67 ± 1.7 | 224.26 ± 1.7

Reference: the NIST ThermoML archive (doi:10.1021/je060200b)
